Measurements published in the supplement of paper PMC10307832.

Assays:
Test in all cases: relative viability (nuclei count vs DMSO), 5 days (fraction); higher = more cells survive
BAY61-3606 + Vorinostat = compound: COC1=C(C=C(C=C1)C2=CC3=NC=CN3C(=N2)NC4=C(C=CC=N4)C(=O)N)OC [BAY61-3606] + O=C(CCCCCCC(=O)Nc1ccccc1)NO [Vorinostat] (partner 1 µM)
In short: (§1)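 Relative viability divides the nuclei count in treated wells by that in vehicle wells. Lung cancer cell lines were seeded in 1536-well plates, dosed by pin tool the next day, and fixed and stained after 5 days in one step with final 0.05% Triton X-100, 1% formaldehyde and 1 ug/ml Hoechst. Dosing was a single drug or a fixed anchor-drug dose plus five library-drug doses (not always all listed) in √10 steps, and values are medians of duplicate plates imaged at 4×.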

BAY61-3606 + Alpelisib = compound: COC1=C(C=C(C=C1)C2=CC3=NC=CN3C(=N2)NC4=C(C=CC=N4)C(=O)N)OC [BAY61-3606] + Cc1nc(NC(=O)N2CCC[C@H]2C(N)=O)sc1-c1ccnc(C(C)(C)C(F)(F)F)c1 [Alpelisib] (partner 2 µM)
In short: as §1

Doxorubicin + Vorinostat = compound: COc1cccc2c1C(=O)c1c(O)c3c(c(O)c1C2=O)C[C@@](O)(C(=O)CO)C[C@@H]3O[C@H]1C[C@H](N)[C@H](O)[C@H](C)O1 [Doxorubicin] + O=C(CCCCCCC(=O)Nc1ccccc1)NO [Vorinostat] (partner 1 µM)
In short: as §1

BAY61-3606 + Foretinib = compound: COC1=C(C=C(C=C1)C2=CC3=NC=CN3C(=N2)NC4=C(C=CC=N4)C(=O)N)OC [BAY61-3606] + COc1cc2c(Oc3ccc(NC(=O)C4(C(=O)Nc5ccc(F)cc5)CC4)cc3F)ccnc2cc1OCCCN1CCOCC1 [Foretinib] (partner 0.25 µM)
In short: as §1

UMC-11
relative viability (BAY61-3606 + Vorinostat; first compound 0.02 µM): 0.43
relative viability (BAY61-3606 + Vorinostat; first compound 0.06325 µM): 0.385
relative viability (BAY61-3606 + Vorinostat; first compound 0.2 µM): 0.436
relative viability (BAY61-3606 + Vorinostat; first compound 0.6325 µM): 0.465
relative viability (BAY61-3606 + Vorinostat; first compound 2 µM): 0.326
relative viability (BAY61-3606 + Alpelisib; first compound 0.02 µM): 1.01
relative viability (BAY61-3606 + Alpelisib; first compound 0.06325 µM): 1.09
relative viability (BAY61-3606 + Alpelisib; first compound 0.2 µM): 1.08
relative viability (BAY61-3606 + Alpelisib; first compound 0.6325 µM): 0.973
relative viability (BAY61-3606 + Alpelisib; first compound 2 µM): 0.912
relative viability (Doxorubicin + Vorinostat; first compound 0.001 µM): 0.52
relative viability (Doxorubicin + Vorinostat; first compound 0.003162 µM): 0.354
relative viability (Doxorubicin + Vorinostat; first compound 0.01 µM): 0.432
relative viability (Doxorubicin + Vorinostat; first compound 0.03162 µM): 0.329
relative viability (Doxorubicin + Vorinostat; first compound 0.1 µM): 0.37
relative viability (BAY61-3606 + Foretinib; first compound 0.02 µM): 1.23
relative viability (BAY61-3606 + Foretinib; first compound 0.06325 µM): 1.12
relative viability (BAY61-3606 + Foretinib; first compound 0.2 µM): 1.05
relative viability (BAY61-3606 + Foretinib; first compound 0.6325 µM): 1.15
relative viability (BAY61-3606 + Foretinib; first compound 2 µM): 1.02
